Patent publication US6875884B1, “Urea derivatives as inhibitors for CCR-3 receptor” (Kirin Beer Kabushiki Kaisha, priority 1999, dated 2005)

How the values were obtained:
[1] = test system: collagen-induced arthritis; test: Type II collagen-induced arthritis in mice, clinical score; assay type: in vivo; conditions: male DBA/1 mice, 20 mg/kg per day subcutaneously starting at 2nd immunization, versus control vehicle
CCR-3 = target: T1, CCR-3 (Homo sapiens, UniProt P51677); test: Inhibition of eotaxin-induced intracellular calcium mobilization in CCR-3 transfectant cells (CCR3/HEK293); assay type: cell-based; parameters: expressed in transfected cells; conditions: compound 6.25 μg/ml, eotaxin 10 nM
T1 sequence (P51677 1-355): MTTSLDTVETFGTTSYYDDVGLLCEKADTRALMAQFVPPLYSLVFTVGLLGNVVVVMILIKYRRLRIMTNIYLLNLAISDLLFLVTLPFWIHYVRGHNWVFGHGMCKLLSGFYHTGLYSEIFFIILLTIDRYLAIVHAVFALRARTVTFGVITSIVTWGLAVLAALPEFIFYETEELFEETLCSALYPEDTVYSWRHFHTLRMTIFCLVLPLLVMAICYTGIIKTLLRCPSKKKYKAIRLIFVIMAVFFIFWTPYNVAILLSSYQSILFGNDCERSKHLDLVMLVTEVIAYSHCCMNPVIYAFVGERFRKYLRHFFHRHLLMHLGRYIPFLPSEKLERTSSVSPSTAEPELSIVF
Description: Compounds 93-162 used in this assay were synthesized by using the method described in Example 6, and Compounds 168-170 were synthesized by using the method described in Example 6 except for the use of isothiocyanates instead of isocyanates in step 6.
CCR-3 transfectant cells (CCR3/HEK293) were isolated and resuspended with assay buffer (20 mM HEPES, 125 mM NaCl, 5 mM KCl, 0.5 mM glucose, 1 mM CaCl2, 1 mM MgCl2, 0.1% BSA). After washing CCR3/HEK293 cells with assay buffer, cells were loaded with Fura-2/AM in assay buffer for 1 hour at room temperature. Cells were washed and resuspended with assay buffer at 5×10^6 cells/ml in assay buffer, and placed in a tissue culture plate (Falcon, no. 3296). Test compounds dissolved in DMSO were added to the wells, followed by eotaxin (10 nM at final concentration). Cells were excited at 340 nm and 380 nm in a fluorimeter (ARGUS50,FDSS2000, Hamamatsu Photonics) and the relative ratio of the fluorescence emitted at 510 nm was recorded. For a control, DMSO without a test compound was added. Intracellular calcium mobilization was calculated as described in Krogel C. et al., FEBS Let. (1989) 243, 41-46.

[2] = test system: bronchoconstriction provoked by acetylcholine; test: Airway hyperreactivity: bronchoconstriction provoked by acetylcholine (murine asthma model); assay type: in vivo; conditions: OVA-immunized male BALB/c mice, intraperitoneally for 9 days, FIG. 2A
Description: (§1) Male BALB/c mice were immunized by an intraperitoneal injection of 10 μg OVA adsorbed to 1 mg aluminum hydroxide gel (alum). A booster injection of the same dose of alum-adsorbed OVA was given 5 days later. Unimmunized control mice received saline.
(§2) Twelve days after primary immunization, both the immunized and unimmunized mice were exposed to aerosolized antigen. Aerosolization of OVA was performed using a nose-only aerosol chamber adapted for mice. Animals were exposed for 10 minutes to 5 mg/ml OVA aerosolized by an ultrasonic nebulizer (NE-U12, Omron, Tokyo, Japan) driven by a vacuum pump. The antigen bronchoprovocation was repeated on day 16 and day 20 under the same conditions. Compound No. 298 (CPD No. 298) was dissolved in saline containing 2% DMSO and 2% Cremophore and administered intraperitoneally for 9 days, starting on the first day of antigen inhalation.
Twenty-four hours after the final aerosol exposure, bronchoconstriction was measured by the overflow method of Konzett and Rōssler. […] Bronchoconstriction was recorded on a flatbed recorder (Model FBR-252A, TOA Electronics Ltd., Tokyo, Japan). […]

[3] = test system: eosinophil infiltration to BALF; test: Eosinophil infiltration to bronchoalveolar lavage fluid (BALF) in OVA-immunized mice; assay type: in vivo; conditions: OVA-immunized male BALB/c mice, intraperitoneally for 9 days, FIG. 2C
Description: as §1, §2
Immediately after the measurement of airway reactivity to acethycholine, BALF was collected by lavaging whole-lung three times with 0.7-ml aliquots of physiological saline containing 0.1% BSA via the tracheal cannula while gently massaging the thorax. The BALF recovered from one mouse was pooled, centrifuged, and the cells were resuspended in 100 μl saline containing 0.1% BSA. Cell numbers were determined using a hemocytometer and 2×10^4 cells were cytecetrifuged onto a glass slide. […]

**Q.** For `O=C(O)CCCN(CCCNC(=O)Nc1ccc(Br)cc1)C1CCCc2ccccc21` (stereo not shown) [Compound 60, 4-[[3-(4-Bromophenylureido)propyl](1,2,3,4-tetrahydro-1-naphthyl)amino]butanoic acid], which “clinical score of collagen-induced arthritis” value [1] is on record?
**A.** marked prevention in clinical score

**Q.** For `COc1ccc(NC(=S)NCCCN(CCCC(=O)O)C2CCCc3ccccc32)cc1` (stereo not shown) [Compound 168], which “Ca^2+ mobilization 6.25 μg/ml (inhibition %)” value (CCR-3) is on record?
**A.** 23%

**Q.** `O=C(O)CCCN(CCCNC(=S)Nc1ccc(OCc2ccccc2)cc1)C1CCCc2ccccc21` (stereo not shown) [Compound 169] was tested. Which “Ca^2+ mobilization 6.25 μg/ml (inhibition %)” value (CCR-3) did it give?
**A.** 48%

**Q.** `O=C(O)CCCN(CCCNC(=S)Nc1ccc(OC(F)(F)F)cc1)C1CCCc2ccccc21` (stereo not shown) [Compound 170] was tested. Which “Ca^2+ mobilization 6.25 μg/ml (inhibition %)” value (CCR-3) did it give?
**A.** 45%

**Q.** What does the source list for `CC[N+](CCCNC(=O)Nc1ccccc1)(CCc1ccc(Cl)cc1)Cc1ccc(Cl)cc1.[I-]` (stereo not shown) [Compound 298, [3-(Phenylureido)propyl][2(4-chlorophenyl)ethyl](4 chlorobenzyl)ethylammonium iodide]?
**A.** clinical score of collagen-induced arthritis [1]: marked prevention in clinical score; bronchoconstriction provoked by acetylcholine [2]: Inhibition of bronchoconstriction; eosinophil infiltration to bronchoalveolar lavage fluid (BALF) [3]: significantly suppressed eosinophil infiltration
